One assay has as its target T1, human GR (full-length) (Homo sapiens, UniProt P04150).
T1 construct: expression vectors encoding full-length steroid receptors: pcDNA3-hAR and pcDNA3-hGR; host or cells: U2OS
T1 sequence (P04150 1-777): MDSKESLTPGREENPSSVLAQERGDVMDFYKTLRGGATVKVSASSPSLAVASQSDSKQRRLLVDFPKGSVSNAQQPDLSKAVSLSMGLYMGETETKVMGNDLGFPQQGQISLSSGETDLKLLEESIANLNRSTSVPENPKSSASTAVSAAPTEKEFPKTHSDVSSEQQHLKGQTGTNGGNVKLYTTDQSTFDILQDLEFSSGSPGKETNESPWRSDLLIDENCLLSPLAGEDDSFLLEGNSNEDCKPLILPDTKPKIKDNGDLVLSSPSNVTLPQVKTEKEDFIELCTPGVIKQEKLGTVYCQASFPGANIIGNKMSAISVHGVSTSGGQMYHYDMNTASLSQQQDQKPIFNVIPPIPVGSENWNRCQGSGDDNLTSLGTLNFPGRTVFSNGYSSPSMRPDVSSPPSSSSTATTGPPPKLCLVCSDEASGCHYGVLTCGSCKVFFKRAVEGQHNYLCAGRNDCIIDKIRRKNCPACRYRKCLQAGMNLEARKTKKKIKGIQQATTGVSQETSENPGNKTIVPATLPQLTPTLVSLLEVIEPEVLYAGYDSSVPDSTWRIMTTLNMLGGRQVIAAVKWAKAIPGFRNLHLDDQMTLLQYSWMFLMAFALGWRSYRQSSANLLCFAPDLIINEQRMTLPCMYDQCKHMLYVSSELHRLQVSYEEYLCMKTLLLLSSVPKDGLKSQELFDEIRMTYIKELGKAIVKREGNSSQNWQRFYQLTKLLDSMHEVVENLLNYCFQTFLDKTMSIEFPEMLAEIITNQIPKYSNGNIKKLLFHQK
In words: U2OS-GR/MMTV luciferase reporter cell line (full-length receptor). In kind it is cell-based. As to conditions: for Log EC50: agonist mode, 20 h, log10 of molar EC50, mean ± SEM; for Log EC50 / Log IC50: GR/MMTV; for Log IC50: antagonist mode, in the presence of 5 nM dexamethasone, log10 of molar IC50, mean ± SEM. (A reporter such as luciferase makes a cellular process visible.)

The target of a further assay is T2, human ERα (full-length) (Homo sapiens, UniProt P03372, G400V).
T2 sequence (P03372 1-595 G400V): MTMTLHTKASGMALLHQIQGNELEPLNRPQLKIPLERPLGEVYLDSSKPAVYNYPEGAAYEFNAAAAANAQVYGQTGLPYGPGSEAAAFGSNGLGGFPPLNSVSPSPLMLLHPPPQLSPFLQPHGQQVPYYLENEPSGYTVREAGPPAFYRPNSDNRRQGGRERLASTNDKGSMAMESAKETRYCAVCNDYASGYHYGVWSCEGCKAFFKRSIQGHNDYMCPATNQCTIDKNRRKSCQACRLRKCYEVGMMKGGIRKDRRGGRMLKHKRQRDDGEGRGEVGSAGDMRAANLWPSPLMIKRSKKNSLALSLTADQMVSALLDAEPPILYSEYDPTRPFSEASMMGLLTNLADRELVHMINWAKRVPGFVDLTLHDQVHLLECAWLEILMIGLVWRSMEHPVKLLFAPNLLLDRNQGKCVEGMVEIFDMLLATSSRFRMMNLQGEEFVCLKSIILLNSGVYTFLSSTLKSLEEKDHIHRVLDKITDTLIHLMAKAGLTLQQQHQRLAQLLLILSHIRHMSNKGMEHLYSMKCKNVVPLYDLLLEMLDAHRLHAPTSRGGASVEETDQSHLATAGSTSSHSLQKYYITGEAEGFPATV
In words: U2OS-ERα/3xERE luciferase reporter cell line (full-length receptor). In kind it is cell-based. To be noted: for luciferase activity in ERα reporter cell lines: even at 10 μM concentration.

Where two headings read alike, the source gives them in different places.

Regarding `CC[C@@H]1Cc2cc(O)ccc2C2=C1c1ccc(O)cc1C[C@H]2CC` (relative stereo) [R.R-THC, (R,R)-cis-diethyltetrahydro-2,8-chrysenediol], at human GR (full-length), the “Log EC50” value is greater than -5.00 M and the “Log IC50” value is recorded as greater than -5.00 M.

What is called EC50 is the concentration needed to bring the measured effect to its halfway point. As for `C[C@]12CCC(=O)C=C1CC[C@@H]1[C@@H]2[C@@H](O)C[C@]2(C=O)[C@@H](C(=O)CO)CC[C@@H]12` [Aldosterone, aldosterone], the EC50 is 0.209 µM at human GR (full-length) (read-out: Log EC50 (converted)) and greater than 10 µM on human ERα (full-length).

In the case of `C[C@H]1C[C@H]2[C@@H]3CCC4=CC(=O)C=C[C@]4(C)[C@@]3(Cl)[C@@H](O)C[C@]2(C)[C@@]1(O)C(=O)CO` [Beclomethasone, beclomethasone], on human ERα (full-length), the “luciferase activity in ERα reporter cell lines” value is recorded as “did not find any sign of luciferase activity”. Also, on human ERα (full-length) (agonist mode, ERα/3xERE, 20 h, value is log10 of molar EC50, mean ± SEM), the “Log EC50” value is greater than -5.00 M. For the same compound, on human ERα (full-length) (antagonist mode, ERα/3xERE, in the presence of 1 nM E2, log10 of molar IC50, mean ± SEM), the “Log IC50” value is given as greater than -5.00 M.

Turning to `C[C@]12C[C@H](O)[C@H]3[C@@H](CCC4=CC(=O)CC[C@@]43C)[C@@H]1CC[C@@H]2C(=O)CO` [Corticosterone, corticosterone], the concentration for a half-maximal effect (EC50) at human GR (full-length) (read-out: Log EC50 (converted)) is 0.0269 µM; at human ERα (full-length), greater than 10 µM.

With `C#C[C@]1(O)CC[C@H]2[C@@H]3CCC4=Cc5oncc5C[C@]4(C)[C@H]3CC[C@@]21C` [Danazol, danazol], the half-maximal effective concentration (EC50) at human GR (full-length) (read-out: Log EC50 (converted)) was greater than 10 µM; at human ERα (full-length) it was 4.37 µM.

`O=c1c(-c2ccc(O)cc2)coc2cc(O)cc(O)c12` [Genistein, genistein] registered an EC50 on human GR (full-length) greater than 10 µM.

With `C[C@]12CC[C@@H]3c4ccc(O)cc4C[C@@H](CCCCCCCCC[S+]([O-])CCCC(F)(F)C(F)(F)F)[C@H]3[C@@H]1CC[C@@H]2O` (stereo partly drawn) [ICI 182.780], at human GR (full-length), the “Log EC50” value is greater than -5.00 M and the “Log IC50” value is greater than -5.00 M.

As for `CCCc1c(-c2ccc(O)cc2)nn(-c2ccc(O)cc2)c1-c1ccc(O)cc1` [PPT, propyl pyrazole triol], the concentration for a half-maximal effect (EC50) is greater than 10 µM on human GR (full-length) (read-out: Log EC50 (converted)) and 0.0017 µM at human ERα (full-length).

For the compound `CCC(=O)[C@@]1(C)CC[C@H]2[C@@H]3CCC4=CC(=O)CCC4=C3CC[C@@]21C` [Promegestone (R5020), promegestone], the EC50 at human GR (full-length) (read-out: Log EC50 (converted)) and on human ERα (full-length) was greater than 10 µM in each case.

`C[C@]12C=CC(=O)C=C1CC[C@H]1[C@@H]3C[C@@H](O)[C@](O)(C(=O)CO)[C@@]3(C)C[C@H](O)[C@@]12F` [Triamcinolone, triamcinolone]: the EC50 at human GR (full-length) (read-out: Log EC50 (converted)) is 0.0129 µM. Also, on human ERα (full-length), the EC50 is greater than 10 µM and the “luciferase activity in ERα reporter cell lines” value was “did not find any sign of luciferase activity”.

These data come from publication PMC3234597, “Two Panels of Steroid Receptor Luciferase Reporter Cell Lines for Compound Profiling” (Combinatorial Chemistry & High Throughput Screening, 2011).
